This is an account of results in ChEMBL document CHEMBL3886786, “1,3 substituted azetidine PDE10 inhibitors” (2016).

Structures are written as SMILES.

For the experiment, the target named is cAMP and cAMP-inhibited cGMP 3',5'-cyclic phosphodiesterase 10A (Homo sapiens, UniProt Q9Y233). Put plainly: Fluorescence Polarization Assay: The fluorescence polarization assay for cyclic nucleotide phosphodiesterases was performed using an IMAP® FP kit supplied by Molecular Devices, Sunnyvale, Calif. (product # R8139). IMAP® technology has been applied previously to phosphodiesterase assays (Huang, W., et al., J. Biomol Screen, 2002, 7: 215). Assays were performed at room temperature in 384-well microtiter plates with an incubation volume of 20.2 μL. Solutions of test compounds were prepared in DMSO and serially diluted with DMSO to yield 8 μL of each of 10 solutions differing by 3-fold in concentration, at 32 serial dilutions per plate. 100% inhibition is determined using a known PDE10 inhibitor, which can be any compound that is present at 5,000 times its Ki value in the assay described as follows, such as papaverine (see Siuciak, et al. Neuropharmacology (2006) 51:386-396; Becker, et al. Behav Brain Res (2008) 186(2):155-60; Threlfell, et al., J Pharmacol Exp Ther (2009) 328(3):785-795), 2-{4-[pyridin-4-yl-1-(2,2,2-trifluoroethyl)-1H-pyrazol-3-yl]phenoxymethyl}quinoline succinic acid or 2-[4-(1-methyl-4-pyridin-4-yl-1H-pyrazol-3-yl)-phenoxymethyl]quinoline succinic acid (see Schmidt, et al. J Pharmacol Exp Ther (2008) 325:681-690; Threlfell, et al., J Pharmacol Exp Ther (2009) 328(3): 785-795). 0% of inhibition is determined by using DMSO (1% final concentrations). […]. In general terms: Polarisation of emitted light reports the rotation of a fluorescent probe.
Sequence of cAMP and cAMP-inhibited cGMP 3',5'-cyclic phosphodiesterase 10A (Q9Y233 whole entry): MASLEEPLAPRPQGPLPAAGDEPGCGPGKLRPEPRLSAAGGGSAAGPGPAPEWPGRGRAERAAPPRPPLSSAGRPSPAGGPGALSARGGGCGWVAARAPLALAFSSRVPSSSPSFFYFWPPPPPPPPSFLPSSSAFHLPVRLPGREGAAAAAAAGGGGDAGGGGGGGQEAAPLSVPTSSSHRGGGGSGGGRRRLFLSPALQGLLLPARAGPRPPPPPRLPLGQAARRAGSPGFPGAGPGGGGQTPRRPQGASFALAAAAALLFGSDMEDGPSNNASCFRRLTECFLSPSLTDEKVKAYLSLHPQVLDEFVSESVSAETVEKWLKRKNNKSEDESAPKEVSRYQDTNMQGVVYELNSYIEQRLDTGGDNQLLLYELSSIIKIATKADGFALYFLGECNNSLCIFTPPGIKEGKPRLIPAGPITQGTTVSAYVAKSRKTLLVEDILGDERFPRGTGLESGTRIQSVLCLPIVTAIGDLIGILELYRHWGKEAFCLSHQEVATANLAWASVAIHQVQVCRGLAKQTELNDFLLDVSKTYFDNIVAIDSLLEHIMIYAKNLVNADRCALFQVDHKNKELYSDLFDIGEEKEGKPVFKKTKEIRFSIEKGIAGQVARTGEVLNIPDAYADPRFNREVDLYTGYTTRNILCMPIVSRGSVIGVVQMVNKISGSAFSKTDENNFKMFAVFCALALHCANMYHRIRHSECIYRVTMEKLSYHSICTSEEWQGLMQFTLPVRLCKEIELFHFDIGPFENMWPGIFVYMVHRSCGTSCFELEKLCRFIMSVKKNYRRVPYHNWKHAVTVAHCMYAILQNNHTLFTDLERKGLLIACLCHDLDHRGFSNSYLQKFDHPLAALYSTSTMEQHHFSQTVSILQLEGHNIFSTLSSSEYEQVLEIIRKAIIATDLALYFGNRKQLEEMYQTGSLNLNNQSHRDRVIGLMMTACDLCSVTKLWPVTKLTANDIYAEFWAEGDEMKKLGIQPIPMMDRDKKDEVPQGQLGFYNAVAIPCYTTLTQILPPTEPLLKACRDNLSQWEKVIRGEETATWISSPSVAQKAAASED

As a reminder, the Ki is a measure of affinity in units of concentration, obtained from inhibition or displacement. Regarding `Cc1nc(N2CC(c3nc4ccccc4n3C)C2)cc(-n2nc(C)nc2C2CCOCC2)n1`, the affinity, expressed as Ki, was 2.2 nM.
